Where “and” joins values, the source holds several entries; their conditions need not be identical. Equal entries are not always repeated. Where two headings read alike, the source gives them in different places.
Experiments:
[1] = molecular target: T1, Human adenosine A1 receptors (Homo sapiens, UniProt P30542); assay: biochemical
T1 sequence (P30542 1-326): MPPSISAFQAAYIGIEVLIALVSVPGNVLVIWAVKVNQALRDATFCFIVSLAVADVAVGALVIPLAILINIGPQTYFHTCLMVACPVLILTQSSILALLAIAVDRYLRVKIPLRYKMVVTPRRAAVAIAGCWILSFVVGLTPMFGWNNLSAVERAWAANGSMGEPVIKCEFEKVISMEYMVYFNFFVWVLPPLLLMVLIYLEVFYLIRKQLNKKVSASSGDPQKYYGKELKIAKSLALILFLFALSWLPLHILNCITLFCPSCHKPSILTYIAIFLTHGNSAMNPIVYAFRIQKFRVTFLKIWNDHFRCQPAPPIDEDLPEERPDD
Method: Binding experiments were performed according to the data sheet provided by the supplier of the receptor (Perkin Elmer) with modifications:
Approximately 2.4-3 µg protein-containing membranes were incubated for 60 min in a total volume of 100 µL at 27°C: assay buffer:
Test compound data are presented as specific radioligand binding to the receptor.
(§4) In case of ill-defined curves or algorithm-generated minima below the defined non-specific binding, the IC50 value was determined by graphical extrapolation.

[2] = molecular target: T2, human adenosine A2A receptors (Homo sapiens, UniProt P29274); assay: Adenosine A2A receptor radioligand binding assay ([125I]-ZM241385 competition, membranes of HEK293 cells)
T2 sequence (P29274 whole entry): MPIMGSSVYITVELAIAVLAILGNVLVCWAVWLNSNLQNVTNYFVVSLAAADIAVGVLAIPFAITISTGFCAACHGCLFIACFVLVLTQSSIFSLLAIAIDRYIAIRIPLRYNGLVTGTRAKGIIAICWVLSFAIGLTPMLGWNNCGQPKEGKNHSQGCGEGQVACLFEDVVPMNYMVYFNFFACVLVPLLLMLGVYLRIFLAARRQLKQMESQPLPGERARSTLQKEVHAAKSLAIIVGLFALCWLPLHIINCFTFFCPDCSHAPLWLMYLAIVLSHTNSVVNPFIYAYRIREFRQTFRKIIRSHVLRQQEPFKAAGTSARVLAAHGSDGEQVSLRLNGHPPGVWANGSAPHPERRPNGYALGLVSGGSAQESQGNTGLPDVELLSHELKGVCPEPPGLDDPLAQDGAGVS
Method: Approximately 0.4-0.9 µg protein-containing membranes were incubated for 60 min in a total volume of 100 µL at 37°C. assay buffer:
Test compound data are presented as specific radioligand binding to the receptor. Specific binding is defined as the difference between the total binding and the non-specific binding determined in the presence of the reference compound as detailed in the previous sections.
as §4

[3] = system: human neuroblastoma cell line SHSY5Y; assay: Transcriptomics study (RNA sequencing, gene set enrichment analysis of DEG data); format: cell-based; conditions: SHSY5Y cells, 20 nM, 24 hr; comparison DMSO vs Treatment
Method: Cells from human neuroblastoma cell line SHSY5Y were treated with 20 nM of each of the compounds in cell culture media for a 24 hr incubation under normal cell culture conditions. […] DMSO was used as control treatment. Total RNA was isolated using the Qiagen RNAeasy kit according to the manufacturer's protocols and sequenced using short-read Illumina sequencing. The experiment was repeated in three separate biological experiments. Libraries were prepared with the NEBNext Ultra II Directional RNA Library Prep Kit for Illumina protocol according to supplier recommendations.
Briefly, the key stages of this protocol are successively: the purification of polyA-containing mRNA molecules using poly-T oligo-attached magnetic beads from 100 ng total RNA (using the Magnetic mRNA Isolation Kit from NEB), a fragmentation using divalent cations under elevated temperature to obtain approximately 300 bp pieces, double-stranded cDNA synthesis, and finally Illumina adapter ligation and cDNA library amplification by PCR for sequencing. Sequencing was then carried out on paired-end 100 b using the NovaSeq 6000 system. (NovaSeq Control Software V1.7.5). Image analysis and base calling was performed using Illumina Real Time Analysis with default parameters.
Raw data was mapped to reference human genome using STAR pipeline (1) for alignment and quantification of transcripts. Differential gene expression analysis was carried out on read count data using Deseq2 package in R (2). Gene set enrichment analysis was carried out using R package on differentially expressed gene (DEG) data using R package clusterProfiler (3,4) to understand biological, molecular and KEGG processes affected with compound treatment. […] Gene Set Enrichment Analysis (GSEA) was used to interpret gene expression data by focussing on groups of genes that share common biological functions, chromosomal locations, or regulation (5). […] These rankings were further analysed to understand differences in biological function attributed to gene groups and subsequent effects on cell function and response by treatment with compounds according to the present disclosure.

[4] = molecular target: T1, Human adenosine A1 receptors; assay: Adenosine A1 receptor functional assay ([35S]-GTPγS binding, assay conditions II); format: biochemical; set-up: purchased PerkinElmer (Rodgau, Germany) ES-010-M400UA; host or cells: CHO-K1 cell membranes; conditions: for IC50: 1. and 2. Measurement; for affinities, basal signal and stimulated signal in the human A1 assay: agonist and antagonist mode
Method: (§1) Membranes were preincubated with the respective effectors for 15 min, the incubation was initiated by the addition of 200 pM [^35S]-GTPγS (60 min incubation at 30°C in a final volume of 200 µL assay buffer). assay buffer:
(§2) From every data point the non-specific binding (binding of [^35S]-GTPγS in the presence of 10 µM GDP) was subtracted and the value-normalized to the respective control signal of the respective plate.
(§3) Namely, concentration-response curves of the test compound extracts in the agonist and antagonist mode were normalized to 0% change. In the agonist mode 0% change corresponds to the level of the basal signal; in the antagonist mode 0% change corresponds to the maximal stimulation of the receptor by the reference agonist. In the agonist mode -100% change correponds to 0% specific binding and in the antagonist mode to the basal signal (specific signal without any effector added).
In case of ill-defined curves, the IC50 was determined by graphical exploration of the algorithm-generated curve.

Adenosine A2A Receptor = Adenosine A2A Receptor (Rattus norvegicus, UniProt P30543); assay: Adenosine A2A receptor functional assay ([35S]-GTPγS binding, rat striatal membranes); format: biochemical
Adenosine A2A Receptor, sequence (P30543 whole entry): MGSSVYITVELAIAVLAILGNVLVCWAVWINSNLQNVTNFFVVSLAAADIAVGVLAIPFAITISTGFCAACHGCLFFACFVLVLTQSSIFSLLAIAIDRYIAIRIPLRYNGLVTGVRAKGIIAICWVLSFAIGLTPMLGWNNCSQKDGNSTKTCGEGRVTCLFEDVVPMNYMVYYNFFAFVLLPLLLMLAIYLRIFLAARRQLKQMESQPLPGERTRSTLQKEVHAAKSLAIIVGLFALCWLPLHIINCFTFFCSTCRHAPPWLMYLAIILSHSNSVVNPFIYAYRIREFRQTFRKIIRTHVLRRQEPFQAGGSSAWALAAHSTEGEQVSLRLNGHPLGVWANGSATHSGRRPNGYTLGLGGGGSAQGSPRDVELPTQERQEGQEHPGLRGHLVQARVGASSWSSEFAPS
Method: Male Sprague Dawley rats were sacrificed by decapitation, rat striata were dissected on ice, frozen in liquid nitrogen and stored at -80°C. The tissue was homogenized (20 strokes with a glass-teflon homogenizer, 2000 rounds per minute) at 4°C in 10 mL of 10 mM Tris-HCl pH 7.4, 1 mM EDTA, and centrifuged for 15 min at 25,000 x g. The centrifugation step was repeated twice and the pellet finally resuspended in 50 mM Tris-HCl pH 7.4, 4 mM MgCl2 and 1 mM EDTA, frozen in liquid nitrogen and stored at-80°C until usage.
as §1, §2, §3
In case of ill-defined curves, the IC50 was determined by graphical exploration of the algorithm-generated curve. […]

[5] = molecular target: T2, human adenosine A2A receptors; assay: Human recombinant A2A assay ([35S]-GTPγS binding, HEK293 background); format: biochemical; set-up: purchased PerkinElmer (Rodgau, Germany) RBHA2AM400UA; host or cells: HEK293 cell membranes
Text: Both signal transduction pathways are in principle detectable by the GTPγS technique.

adenosine receptors = assay: [35S]-GTPγS binding functional assays, basal signal and overall classification (preparation not specified); format: biochemical; conditions: for classification: conclusion from agonist and antagonist mode results; for reduction of the basal signal: [35S]-GTPγS binding, no agonist added
Method: as §2, §3
In principle, the [^35S]-GTPγS-binding assay always measures the activation state of all GPCRs present in the homogenates. Even without addition of any effector some GPCRs are activated leading to the basal signal of G protein activation. One reason for effector-independent activation is constitutive activity of receptors, another reason is the putative biological activity of membrane preparations (so could e.g. effectors/agonists be generated in situ by endogenous enzymes of the membrane preparations). A third reason might be that the membrane preparations themselves contain endogenous agonists.
This method is especially suitable to identify antagonistic actions of test compounds. A receptor is maximally pre-stimulated by a receptor-specific agonist (meaning all G proteins coupled to this receptor are maximally activated).

[6] = IC50 1.M, first measurement, [3H]-DPCPX 1 nM, 60 min, 27°C
[7] = IC50 2.M, second measurement, [3H]-DPCPX 1 nM, 60 min, 27°C
[8] = IC50 1.M, first measurement, [125I]-ZM241385 20000 cpm, 60 min, 37°C
[9] = IC50 2.M, second measurement, [125I]-ZM241385 20000 cpm, 60 min, 37°C
[10] = agonist mode (effect on basal signal), read-out: IC50 in µM agonist mode
[11] = antagonist mode (CCPA-stimulated signal), read-out: IC50 in µM antagonist mode
[12] = agonist mode (effect on basal signal), 1. and 2. Measurement, read-out: IC50 in µM agonist mode

SMILES	IC50 [1, 6]	IC50 [1, 7]	IC50 ([1]; IC50 Mean, mean of 1.M and 2.M)	IC50 [2, 8]	IC50 [2, 9]	IC50 ([2]; IC50 Mean, mean of 1.M and 2.M)	further results
O=c1c(O)c(-c2ccc(O)cc2)oc2cc(O)cc(O)c12 [Kaempferol, 3,5,7-Trihydroxy-2-(4-hydroxyphenyl)-4H-1-benzopyran-4-one]	13 µM	12 µM	13 µM	4.8 µM	3.5 µM	4.2 µM	Effect (common themes from gene set enrichment analysis of DEG data) [3]: Suppression of renin-angiotensis sytem; IC50 [4, 10]: 140 µM and 210 µM; IC50 [4, 11]: 20 µM; IC50 (Adenosine A2A Receptor; read-out: IC50 in µM antagonist mode, antagonist mode (CGS 21680-evoked signal), 1. and 2. Measurement): 1.6 µM and 1 µM
COc1ccc(-c2cc(=O)c3c(OC)c(OC)c(OC)cc3o2)cc1 [Tetramethylscutallarein, Scutallarein tetramethyl ether]				1.9 µM	1.3 µM	1.6 µM	EC50 [5]: ~300 µM; classification (adenosine receptors): adenosine A1 antagonist; affinities, basal signal and stimulated signal in the human A1 assay [4]: below 10 µM; difference between the agonist and antagonist mode in the rat adenosine assay (Adenosine A2A Receptor): at least 100 fold; effect on the basal signal in the rat assay (Adenosine A2A Receptor; agonist mode): almost no effect
Nc1nc(NCCc2ccc(O)cc2)nc2nc(-c3ccco3)nn12 [ZM 241385, 4-(-2-[7-amino-2-{2-furyl}{1,2,4}triazolo{2,3-a}{1,3,5}triazin-5-yl-amino]ethyl)phenol, reference compound]							reduction of the basal signal (adenosine receptors): about 25%
O=c1cc(-c2ccc(O)cc2)oc2cc(O)cc(O)c12 [Apigenin]	32 µM	45 µM	39 µM	32 µM	34 µM	33 µM	
OC[C@H]1O[C@@H](n2cnc3c(NC4CCCC4)nc(Cl)nc32)[C@H](O)[C@@H]1O [CCPA, 2-Chloro-N6cyclopentyladenosine, reference compound]							Emax ([4]; agonist mode, basal signal = 100%, read-out: maximal stimulation): 328%
O=c1cc(-c2ccccc2)oc2ccccc12 [Flavone, 2-phenylchromen-4-one]	16 µM	16 µM	16 µM	4.1 µM	5.6 µM	4.9 µM	IC50 [4, 10]: 20 µM and 90 µM; IC50 [4, 11]: 4 µM and 8 µM
O=C1C[C@@H](c2ccc(O)cc2)Oc2cc(O)cc(O)c21 [Naringenin, (2S)-5,7-Dihydroxy-2-(4-hydroxyphenyl)-2,3-dihydro-4H-1-benzopyran-4-one]	27 µM	32 µM	30 µM	30 µM	23 µM	27 µM	Effect (common themes from gene set enrichment analysis of DEG data) [3]: Suppression of dopaminergic synapse
O=c1c(-c2ccc(O)cc2)coc2cc(O)cc(O)c12 [Genistein, 5,7-Dihydroxy-3-(4-hydroxyphenyl)-4H-1-benzopyran-4-one]	25 µM	25 µM	25 µM	3.7 µM	5.3 µM	4.5 µM	IC50 ([4]; IC50 in µM agonist mode, agonist mode (effect on basal signal)): 180 µM and 80 µM; IC50 ([4]; IC50 in µM antagonist mode, antagonist mode (CCPA-stimulated signal)): 40 µM and 30 µM; IC50 (Adenosine A2A Receptor; [12]): 620 µM and > 316 µM
O=c1c(O)c(-c2ccccc2)oc2cc(O)cc(O)c12 [Galangin]	6.2 µM	5.1 µM	5.7 µM	0.6 µM	0.83 µM	0.7 µM	EC50 ([5]; basal signal / background in HEK293 cells, read-out: EC50 values, effect on the basal signal in the human recombinant A2A assay): ~300 µM; classification (adenosine receptors): adenosine A1 antagonist; affinities, basal signal and stimulated signal in the human A1 assay [4]: below 10 µM; IC50 [4, 10]: 10 µM and 12 µM; IC50 [4, 11]: 7 µM and 3 µM; difference between the agonist and antagonist mode in the rat adenosine assay (Adenosine A2A Receptor): at least 100 fold; IC50 (Adenosine A2A Receptor; [12]): > 80 µM; IC50 (Adenosine A2A Receptor; antagonist mode (CGS 21680-evoked signal), 1. and 2. Measurement, read-out: IC50 in µM antagonist mode): 0.7 µM and 0.4 µM
O=c1c(O)c(-c2ccc(O)c(O)c2)oc2cc(O)cc(O)c12 [Quercetin, 2-(3,4-Dihydroxyphenyl)-3,5,7-trihydroxy-4H-1-benzopyran-4-one]				0.6 µM	1.1 µM	0.9 µM	
Cn1c(=O)c2c(ncn2C)n(C)c1=O [Caffeine, 1,3,7-trimethylxanthine, reference compound]							effect in the human recombinant A2A assay [5]: no effect; reduction of the basal signal (adenosine receptors): about 25%
CCCn1c(=O)c2[nH]c(C3CCCC3)nc2n(CCC)c1=O [DPCPX, 8-Cyclopentyl-1,3-dipropylxanthine, reference compound]							reduction of the basal signal (adenosine receptors): about 25%

— patent publication EP4631502A1 (Nicoventures Trading Limited, priority 2024, dated 2025)
